Data: patent publication US20150105252A1, “SUBSTITUTED PYRAZOLES AS HERBICIDES” (E I DU PONT DE NEMOURS AND COMPANY, priority 2013, published 2015)

Key:
ryegrass, Italian = assay: Test C postemergence; format: in vivo, Lolium multiflorum; conditions: for Plant response rating, Ryegrass, Italian / Ryegrass, Italian plant response rating: postemergence; for Ryegrass, Italian plant response rating: scale 0 to 100; for Plant response rating (scale of 0 to 100 where 0 is no effect and 100 is complete control), Ryegrass, Italian: 31 g ai/ha, visually evaluated after 13 to 15 days
From the text: (§1) Seeds of plant species selected from blackgrass (Alopecurus myosuroides), ryegrass, Italian (Italian ryegrass, Lolium multiflorum), wheat (winter wheat, Triticum aestivum), galium (catchweed bedstraw, Galium aparine), corn (Zea mays), crabgrass, large (large crabgrass, Digitaria sanguinalis), foxtail, giant (giant foxtail, Setaria faberii), johnsongrass (Sorghum halepense), lambsquarters (Chenopodium album), morningglory (Ipomoea coccinea), nutsedge, yellow (yellow nutsedge, Cyperus esculentus), pigweed (redroot pigweed, Amaranthus retroflexus), ragweed (common ragweed, Ambrosia elation), soybean (Glycine max), barnyardgrass (Echinochloa crus-galli), oilseed rape (Brassica napus), waterhemp (common waterhemp, Amaranthus rudis), oat, wild (wild oat, Avena fatua), kochia (Kochia scoparia), Surinam grass (Brachiaria decumbens), foxtail, green (green foxtail, Setaria viridis), goosegrass (Eleusine indica), bromegrass, downy (downy bromegrass, Bromus tectorum), nightshade (eastern black nightshade, Solanum ptycanthum), cocklebur (common cocklebur, Xanthium strumarium), cupgrass, woolly (woolly cupgrass, Eriochloa villosa), bermudagrass (Cynodon dactylon), sunflower, (common oilseed sunflower, Helianthus annuus), Russian thistle (Salsola kali), and velvetleaf (Abutilon theophrasti) were planted into a blend of loam soil and sand and treated preemergence with test chemicals formulated in a non-phytotoxic solvent mixture which included a surfactant.
(§2) At the same time, plants selected from these crop and weed species and also chickweed (common chickweed, Stellaria media), canarygrass (littleseed canarygrass, Phalaris minor), and deadnettle (henbit deadnettle, Lamium amplexicaule), were planted in pots containing Redi-Earth® planting medium (Scotts Company, 14111 Scottslawn Road, Marysville, Ohio 43041) comprising spaghnum peat moss, vermiculite, wetting agent and starter nutrients and treated with postemergence applications of test chemicals formulated in the same manner. Plants ranged in height from 2 to 18 cm (1- to 4-leaf stage) for postemergence treatments. Treated plants and controls were maintained in a greenhouse for 13 to 15 days, after which time all species were compared to controls and visually evaluated. Plant response ratings, summarized in Table C, are based on a scale of 0 to 100 where 0 is no effect and 100 is complete control. A dash (-) response means no test result.

ragweed = assay: Test C postemergence; format: in vivo, Ambrosia elation; conditions: for Plant response rating, Ragweed / Ragweed plant response rating: postemergence; for Ragweed plant response rating: scale 0 to 100; for Plant response rating (scale of 0 to 100 where 0 is no effect and 100 is complete control), Ragweed: 31 g ai/ha, visually evaluated after 13 to 15 days
From the text: as §1, §2

pigweed = assay: Test C preemergence; format: in vivo, Amaranthus retroflexus
From the text: as §1, §2

soybean = assay: Test C preemergence; format: in vivo, Glycine max
From the text: as §1, §2

rice = assay: Test C flooded paddy test; format: in vivo, Oryza sativa; conditions: Flood
In short: (§3)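 Compound was added to standing water 3 cm above soil, flood maintained, and plants held in a greenhouse before visual scoring against controls at 13 to 15 days.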

sedge, umbrella = assay: Test C flooded paddy test; format: in vivo, Cyperus difformis; conditions: Flood
In short: as §3

ducksalad = assay: Test C flooded paddy test; format: in vivo, Heteranthera limosa; conditions: Flood
In short: as §3

barnyardgrass = assay: Test C flooded paddy test; format: in vivo, Echinochloa crus-galli; conditions: Flood
In short: as §3

[1] = 250 g ai/ha, scale 0 to 100 (0 no effect, 100 complete control)
[2] = 62 g ai/ha, scale 0 to 100, 0 no effect, 100 complete control
[3] = 125 g ai/ha, scale 0 to 100, 0 no effect, 100 complete control
[4] = Preemergence, 16 g ai/ha, scale 0 to 100
[5] = preemergence, 31 g ai/ha, scale 0 to 100 (0 no effect, 100 complete control), 13 to 15 days
[6] = preemergence, 62 g ai/ha, 13 to 15 days, scale 0 to 100, 0 = no effect, 100 = complete control
[7] = preemergence, 125 g ai/ha, scale 0 to 100, 0 is no effect, 100 is complete control
[8] = preemergence, 31 g ai/ha, visual rating, scale 0 to 100 (0 no effect, 100 complete control), 13 to 15 days
[9] = preemergence, 62 g ai/ha, scale 0 to 100 (0 no effect, 100 complete control), 13 to 15 days
[10] = Preemergence, 4 g ai/ha, scale 0 to 100
[11] = Preemergence, 8 g ai/ha, scale 0 to 100
[12] = preemergence, 125 g ai/ha, 13 to 15 days, scale 0 to 100, 0 = no effect, 100 = complete control
[13] = preemergence, 250 g ai/ha, scale 0 to 100, 0 is no effect, 100 is complete control
[14] = 31 g ai/ha, scale 0 to 100 (0 no effect, 100 complete control)
[15] = 62 g ai/ha, scale 0 to 100 (0 no effect, 100 complete control)
[16] = 125 g ai/ha, scale 0 to 100 (0 no effect, 100 complete control)

| SMILES | Plant response rating, Ryegrass, Italian (ryegrass, Italian; [1]) | Plant response rating, Ryegrass, Italian (ryegrass, Italian; [3]) | Plant response rating, Ragweed (ragweed; [1]) | Plant response rating, Ragweed (ragweed; [3]) | Plant response rating, Pigweed (pigweed; [4]) | Pigweed plant response rating (pigweed; [7]) | Plant response rating, Soybean (soybean; [4]) | Soybean plant response rating (soybean; [7]) | Ryegrass, Italian plant response rating (ryegrass, Italian; 62 g ai/ha) | Ragweed plant response rating (ragweed; 62 g ai/ha) | Plant response rating (scale of 0 to 100), Pigweed (pigweed; Preemergence, 250 g ai/ha) | Pigweed plant response rating (pigweed; [8]) | Pigweed plant response rating (pigweed; [9]) | Plant response rating (scale of 0 to 100), Soybean (soybean; Preemergence, 250 g ai/ha) | Soybean plant response rating (soybean; [8]) | Soybean plant response rating (soybean; [9]) | Plant response rating (scale of 0 to 100 where 0 is no effect and 100 is complete control), Ryegrass, Italian (ryegrass, Italian; Postemergence) | Plant response rating (scale of 0 to 100 where 0 is no effect and 100 is complete control), Ragweed (ragweed; Postemergence) | Plant response rating, Pigweed (pigweed; [12]) | Plant response rating, Soybean (soybean; [12]) | other results |
| --- | --- | --- | --- | --- | --- | --- | --- | --- | --- | --- | --- | --- | --- | --- | --- | --- | --- | --- | --- | --- | --- |
| CCc1cc(C(=O)NCC(F)(F)F)nn1Cc1cccc(OC(F)(F)F)c1 [Compound 20] | 25 | 15 | 25 | 15 |  |  |  |  |  |  |  |  |  |  |  |  |  |  |  |  | Plant response rating, Ryegrass, Italian (ryegrass, Italian; [2]): 10; Plant response rating, Ragweed (ragweed; [2]): 15 |
| CCCNC(=O)c1cc(CC)n(Cc2cccc(OC(F)(F)F)c2)n1 [Compound 27] | 15 | 10 | 10 | 5 |  |  |  |  |  |  |  |  |  |  |  |  |  |  |  |  | Plant response rating, Ryegrass, Italian (ryegrass, Italian; [2]): 5; Plant response rating, Ragweed (ragweed; [2]): 0 |
| CCCNC(=O)c1cc(CC)n(Cc2ccnc(C(F)(F)F)c2)n1 [Compound 75] |  | 10 |  | 85 | 85 | 100 | 35 | 98 | 5 | 70 |  |  |  |  |  |  |  |  |  |  | Pigweed plant response rating (pigweed; [5]): 100; Plant response rating, Pigweed (pigweed; [6]): 100; Soybean plant response rating (soybean; [5]): 85; Plant response rating, Soybean (soybean; [6]): 98; Plant response rating (scale of 0 to 100), Ryegrass, Italian (ryegrass, Italian; Postemergence, 16 g ai/ha): 5; Plant response rating (scale of 0 to 100), Ragweed (ragweed; Postemergence, 16 g ai/ha): 40 |
| CCc1cc(C(=O)NCC(F)(F)F)nn1Cc1nc(C(F)(F)F)nn1C [Compound 107] | 5 | 5 | 90 | 85 |  | 100 |  | 95 | 5 | 65 | 100 | 100 | 100 | 95 | 15 | 95 | 0 | 10 |  |  |  |
| CCc1cc(C(=O)NCC(F)(F)F)nn1Cc1cc(C(F)(F)F)nn1C [Compound 108, 5-ethyl-1-[[1-methyl-3-(trifluoromethyl)-1H-pyrazole-5-yl]methyl]-N-(2,2,2-trifluoroethyl)-1H-pyrazole-3-carboxamide] | 20 | 5 | 85 | 50 |  | 100 |  | 95 | 5 | 50 | 100 | 100 | 100 | 98 | 20 | 90 | 0 | 10 |  |  |  |
| CCc1cc(-c2ccc(C(F)(F)F)cc2)nn1Cc1ccnc(C(F)(F)F)c1 [Compound 110] | 40 | 35 | 80 | 80 |  | 100 |  | 15 | 20 | 80 | 100 | 95 | 100 | 20 | 10 |  | 20 | 50 |  |  |  |
| CCOc1cc(C(=O)NCC(F)(F)F)nn1Cc1cc(C(F)(F)F)nn1C [Compound 140] |  |  |  |  | 100 |  | 5 |  |  |  |  | 100 |  |  | 25 |  |  |  |  |  | Plant response rating, Pigweed (pigweed; [10]): 80; Plant response rating, Pigweed (pigweed; [11]): 100; Plant response rating, Soybean (soybean; [10]): 10; Plant response rating, Soybean (soybean; [11]): 5 |
| O=C(NCC(F)(F)F)c1cc(CCF)n(Cc2ccnc(C(F)(F)F)c2)n1 [Compound 175] |  |  |  |  |  |  |  |  |  |  |  | 100 | 100 |  | 30 | 98 |  |  | 100 | 98 | Pigweed plant response rating (pigweed; [13]): 100; Soybean plant response rating (soybean; [13]): 98 |
| CCNC(=O)c1cc(CCF)n(Cc2ccnc(C(F)(F)F)c2)n1 [Compound 178] |  |  |  |  | 45 |  | 5 |  |  |  |  | 100 | 100 |  | 5 | 40 |  |  | 100 | 75 | Plant response rating, Rice (rice; [14]): 0; Plant response rating, Rice (rice; [15]): 0; Plant response rating, Rice (rice; [16]): 0; Plant response rating, Rice (rice; 250 g ai/ha, scale 0 to 100): 20; Plant response rating, Sedge, Umbrella (sedge, umbrella; [14]): 0; Plant response rating, Sedge, Umbrella (sedge, umbrella; [15]): 0; Plant response rating, Sedge, Umbrella (sedge, umbrella; [16]): 40; Plant response rating, Sedge, Umbrella (sedge, umbrella; 250 g ai/ha, scale 0 to 100): 80; Plant response rating, Ducksalad (ducksalad; [14]): 0; Plant response rating, Ducksalad (ducksalad; [15]): 30; Plant response rating, Ducksalad (ducksalad; [16]): 60; Plant response rating, Ducksalad (ducksalad; 250 g ai/ha, scale 0 to 100): 90; Plant response rating, Barnyardgrass (barnyardgrass; [14]): 0; Plant response rating, Barnyardgrass (barnyardgrass; [15]): 0; Plant response rating, Barnyardgrass (barnyardgrass; [16]): 0; Plant response rating, Barnyardgrass (barnyardgrass; 250 g ai/ha, scale 0 to 100): 20 |
| CCCc1cc(C(=O)NOC(C)C)nn1Cc1cc(C(F)(F)F)nn1C [Compound 203] |  |  |  |  |  |  |  |  |  |  |  | 100 | 100 |  | 5 | 5 |  |  | 100 | 35 | Pigweed plant response rating (pigweed; [13]): 100; Soybean plant response rating (soybean; [13]): 55; Plant response rating, Rice (rice; [14]): 0; Plant response rating, Rice (rice; [15]): 0; Plant response rating, Rice (rice; [16]): 0; Plant response rating, Rice (rice; 250 g ai/ha, scale 0 to 100): 0; Plant response rating, Sedge, Umbrella (sedge, umbrella; [14]): 40; Plant response rating, Sedge, Umbrella (sedge, umbrella; [15]): 40; Plant response rating, Sedge, Umbrella (sedge, umbrella; [16]): 70; Plant response rating, Sedge, Umbrella (sedge, umbrella; 250 g ai/ha, scale 0 to 100): 85; Plant response rating, Ducksalad (ducksalad; [14]): 0; Plant response rating, Ducksalad (ducksalad; [15]): 0; Plant response rating, Ducksalad (ducksalad; [16]): 20; Plant response rating, Ducksalad (ducksalad; 250 g ai/ha, scale 0 to 100): 80; Plant response rating, Barnyardgrass (barnyardgrass; [14]): 0; Plant response rating, Barnyardgrass (barnyardgrass; [15]): 0; Plant response rating, Barnyardgrass (barnyardgrass; [16]): 0; Plant response rating, Barnyardgrass (barnyardgrass; 250 g ai/ha, scale 0 to 100): 0 |
